Source: US20260083701A1, “COMPOSITIONS, FORMULATIONS, AND METHODS FOR TREATMENT OF INFLAMMATORY CONDITIONS” (Oddity Labs, LLC, priority 2023, published 2026)

Assays:
IL-13 = assay: Functional Th2-blocking activity: IL-13 expression in primary human Th2 cells (intracellular flow cytometry); assay type: cell-based; settings: for Expression of Cytokine following Stimulation (% X Positive among CD4+ T cells) IL-13: 3 days co-culture with compound, PMA/ionomycin stimulation 6 hours; for % Normalized Reduction of Cytokine Expression From Baseline in CD4+ T Cells IL-13: normalized against vehicle control (water), 3 days co-culture, PMA/ionomycin 6 hours
Source text: (§1) To produce T helper 2 (Th2) cells, peripheral blood mononuclear cells (PBMCs) were harvested from healthy donor leukopaks using Ficoll gradients. Naive CD4+ T cells were further isolated, then activated using TransAct or Dynabeads (depending on the donor). CD4+ T cells were activated for two days in the presence of low dose IL-2 (30 IU/mL) in X-VIVO-15 media containing 5% human AB serum (activation cycle). On the second day, the media was exchanged and supplemented with interleukin 4 (IL-4) (20 ng/mL), anti-IFN-gamma antibody (1 μg/mL), and interleukin 2 (IL-2) (rest cycle). The cells were cultured for an additional five days then evaluated for Prostaglandin D2 receptor 2 (DP2 or CRTH2) expression and IL-4 and interleukin 13 (IL-13) expression following phorbol myristate acetate (PMA)/ionomycin stimulation. If the expression of CRTH2 was >50%, the cells were frozen and used in Th2 IL-4/IL-13 bioactivity assays. If the expression of CRTH2 <50%, then the cells were restimulated using TransAct (or Dynabeads) and maintained on similar cycles of activation (2 days) and rest (5 days), until the expression of CRTH2 exceeded 50%. Typically, no more than 4 cycles are needed before the Th2 cells may be harvested and frozen.
(§2) For testing the ability of a compound or salt of the present disclosure to reduce the expression of IL-4 and IL-13 was tested in primary human Th2 cells, the abovementioned cells were thawed, then cultured for one day in IL-2 containing media. The Th2 cells were treated with compounds added at varying concentrations for three days, after which, the cells were washed, and stimulated with PMA/ionomycin for 6 hrs prior to readabout via intracellular flow cytometry.
(§3) The ability of a compound or salt of the present disclosure to reduce the expression of IL-4 and IL-13 was tested in primary human Th2 cells. Naive, primary human CD4+ T cells were isolated from healthy donors and differentiated into Th2 cells using a combination of IL-4 cytokine and anti-IFN-gamma antibody, based on a modified protocol from Scott et al (Activation of Th2 cells downregulates CRTh2 through an NFAT1 mediated mechanism. PLoS One. 2018 Jul. 3; 13(7):e0199156). Th2 cells were CRTH2+ and expressed IL-4 and IL-13 following PMA/ionomycin stimulation. Prior to PMA/ionomycin stimulation, Th2 cells were co-cultured with a compound or salt of the present disclosure for 3 days and then stimulated for 6 hours. Intracellular flow cytometry was performed to investigate the expression of IL-4 and IL-13 among stimulated CD4+ Th2 cells. The compound or salt was evaluated across a 2-log concentration range. Th2 cells were cultured in X-VIVO-15 media with human AB serum and supplemented with low dose IL-2 (30 IU/mL). The antibody panel that was used is listed below. All antibodies were obtained from Biolegend.
(§4) Description of Calculation for: (1) Expression of Cytokine following Stimulation (% X Positive among CD4+ T cells), and (2) % Normalized Reduction of Cytokine Expression From Baseline in CD4+ T Cells
(§5) The expression of IL-4 and IL-13 was measured based on positive gated fractions among CD4+ Th2 cells. The number is expressed as a positive percentage, determined based on the fluorescence-minus-one (FMO) control. The max percent is 100%. The normalized reduction value uses the vehicle control (water) to normalize against using the following percent change formula. (Cmpd: compound)

IL-4 = assay: Functional Th2-blocking activity: IL-4 expression in primary human Th2 cells (intracellular flow cytometry); assay type: cell-based; settings: for % Normalized Reduction of Cytokine Expression From Baseline in CD4+ T Cells IL-4: normalized against vehicle control (water), 3 days co-culture, PMA/ionomycin 6 hours; for % Normalized Reduction of Cytokine Expression From Baseline in CD4+ T Cells IL-4 / Expression of Cytokine following Stimulation (% X Positive among CD4+ T cells) IL-4: primary human CD4+ Th2 cells; for Expression of Cytokine following Stimulation (% X Positive among CD4+ T cells) IL-4: 3 days co-culture with compound, PMA/ionomycin stimulation 6 hours
Source text: as §1, §2, §3, §4, §5

IL-4 receptor signaling = assay: IL-4 signaling inhibition in HEK-Blue IL-4/IL-13 cells; assay type: cell-based, human; settings: HEK-Blue IL-4/IL-13 cells stimulated with 1.25 ng/mL IL-4, co-culture with varying concentrations for 24 hours
Procedure: HEK-Blue IL-4/IL-13 cells are used to evaluate IL-4/IL-4R-alpha binding. HEK-Blue IL-4/IL-13 have been engineered to produce secreted alkaline phosphatase (SEAP) when exposed to IL-4 or IL-13 and have been previously used to identify IL-4 and IL-4R inhibitors. Compounds are tested with these cells at various dosages to evaluate dose dependent changes in IL-4/IL-4R-alpha binding inhibition. Full EC50 curves are generated for Tier1 compounds.
In the experiment, engineered HEK-Blue™ IL-4/IL-13 cells were stimulated with a dose of 1.25 ng/mL of IL-4 and then subjected to co-culture with varying concentrations of the compounds for a period of 24 hours. […] The provided data represent the mean±standard deviation of six technical replicates carried out across two experimental replicates.

Structure (SMILES) | Expression of Cytokine following Stimulation (% X Positive among CD4+ T cells) IL-13 (IL-13) | % Normalized Reduction of Cytokine Expression From Baseline in CD4+ T Cells IL-13 (IL-13) | Th2 activity (IL-4) | % Normalized Reduction of Cytokine Expression From Baseline in CD4+ T Cells IL-4 (IL-4) | Expression of Cytokine following Stimulation (% X Positive among CD4+ T cells) IL-4 (IL-4) | IL-4 signaling inhibition (IL-4 receptor signaling)
O=C(Nc1cccc(Cn2nc3ccccn3c2=O)c1)c1c[nH]n2c1nc(=O)c1ccccc12 [II-2, 5-oxo-N-(3-((3-oxo-[1,2,4]triazolo[4,3-a]pyridin-2(3H)-yl)methyl)phenyl)-1,5-dihydropyrazolo[1,5-a]quinazoline-3-carboxamide] | B (B represents 10% to less than 14%) | D (D represents 50% or greater) | suppressed Th2 activity | B (B represents 15% to less than 20%) | B (B represents 30% to less than 35%) | exception
O=C(Nc1cccc(S(=O)(=O)NC2=NCCC2)c1)c1ccc(OCc2ccccc2)cc1 [III-1, 4-(benzyloxy)-N-{3-[(3,4-dihydro-2H-pyrrol-5-yl)sulfamoyl]phenyl}benzamide] | B (B represents 10% to less than 14%) | D (D represents 50% or greater) |  | D (D represents 25% or greater) | A (A represents 0% to less than 30%) | prominent IL-4 signaling inhibition
